# In patent US10716769B2 (GUANGZHOU JTREAT BIOSCI. LTD., priority 2015, dated 2020):
# Columns and labels:
# HIV-1 integrase = target: T1, HIV-1 integrase (Human immunodeficiency virus type 1 group M subtype B, UniProt P04585); assay: Test of sample inhibition to HIV-1 integrase (ELISA, strand transfer); assay type: biochemical
# T1 construct: purified HIV-1 integrase is added to donor substrates coated 96-well plate; made in house
# Description: The half-inhibitory concentration IC50 for 3′ excision of the substrate and the strand transfer is in the range of 88.92-10.20 μg/ml, in which the best inhibitory activity of the compound is higher than that of the monomer compound of hydroxybenzoic acid. The mechanism of the HIV-1 integrase is a two-step reaction: 1) 3′ Processing: the integrase binds to the specific sequences of the long terminal repeat region (LTR) of the proviral DNA to form a stable complex, then the endonucleotides of 3′ end of nucleoside is processed, and the GT dinucleotide of the sequence . . . […] Thus, the activity of the integrase inhibitor is embodied in inhibiting the excision of the 3′end of the viral DNA or the strand transfer, and is represented by a half-inhibitory concentration IC50.
# In vitro integrase test, 30 synthetic oligonucleotides are used as donor substrates, 20 synthetic oligonucleotides are used as target substrates. Purified HIV-1 integrase is added to donor substrates coated 96-well plate, ELISA reaction is performed, the product of the strand transfer of target DNA is detected, color development is conducted by biotin-labeled alkaline phosphatase system, and the microplate reader is used to measure the OD value.
# First, inhibitors of the enzyme may be screened by adding a sample to the reaction system. Before use, the sample is prepared with DMSO to an appropriate concentration, and then is diluted 5 times at 4 dilutions. The sample after dilution is added into the donor substrate coated 96-well plate, and then added to the reaction Buffer containing the genetically engineered target enzyme and the biotin-target substrate, incubated under optimal reaction conditions, and colored by biotin-labeled alkaline phosphatase system, and the OD value for absorbance value at 405 nm is measured.
# 30 synthetic oligonucleotides are used as donor substrates, 20 synthetic oligonucleotides are used as target substrates, purified HIV-1 integrase is added to donor substrates coated 96-well plate, ELISA reaction is performed, the product of the strand transfer of target DNA is detected, color development is conducted by biotin-labeled alkaline phosphatase system, and the OD value is measured by a microplate reader. The addition of samples to the reaction system can be used to screen inhibitors for the enzyme.
# 1. HIV-1 IN: it is extracted and saved by Chinese National New Drug Screening Center and Institute of Pharmaceutical Biotechnology under Chinese Academy of Medical Sciences.
# 2. Sample Treatment: 10 samples A1-A10 dissolved into DMSO prior to use are prepared into suitable concentrations, and then diluted 5 times at 4 dilutions. Donor substrate and target substrate are from Shanghai Biochemical Synthesis.
# 3. Method for Test: the samples after dilution are added into the donor substrate coated 96-well plate, then added to the reaction Buffer containing the genetically engineered target enzyme and the biotin-target substrate, incubated under optimal reaction conditions, and colored by biotin-labeled alkaline phosphatase system, and the OD value for absorbance value at 405 nm is measured.
# MCF7 = assay: MTT in vitro tumor cell inhibition; assay type: cell-based; settings: 3 days
# Excerpt: An effective amount of the above compounds and/or the compositions containing the same used as an active ingredient have an effect on inhibiting the tumor cells. The present invention detects the inhibitory effect of the hydroxy-substituted benzophenone compounds on the proliferation of the in vitro cultured human tumor cells by the methylthiazolyl tetrazolium method.
# The method is used to detect cell viability. […] Particles can be dissolved by dimethyl sulfoxide (DMSO) isopropyl alcohol or 10% acidified SDS (sodium dodecyl sulfate), and a microplate reader is used to measure the OD value at A570 wavelength, which indirectly reflects the number of live cells. The method is used for detection of the cytokines bioactivity, as well as anti-tumor drugs and tumor radiosensitivity and cytotoxicity test, and has the characteristics of being simple, fast, economical, sensitive and accurate and having good reproducibility and no need to use radionuclides. This method has been widely used in screening preclinical anticancer drugs and detecting the drug sensitivity of fresh tumor cells. The method is as below:
# (1) The tumor cell suspension prepared by 0.25% of trypsin digestion and adjusted to a cell concentration of 10^5/ml with RPMI1640 containing 10% fetal calf serum is added to a 96-well plate with 100 μl for each well, cultured 24 hours, and then different dosages of drugs are added with 100 μl/well, for which, the negative control groups, positive control groups and withering wells are set, and 4 parallel wells are set for each group.
# (2) They are continually cultured in incubator containing 5% of CO2 at 37° C. for 24 to 48 hours. MTT solution (5 g/L) is added to each well before the termination of the experiment. The OD value at A570 nm is detected by microplate reader. The OD value at A570 of the negative group without the addition of drugs is taken as a control. The cell survival rate and cell inhibition rate of drugs are calculated according to the following formula: Cell survival rate=(OD value of test group/OD value of control group)×100% Cell inhibition rate (%)=(OD value of the control group−OD value of the test group/(OD value of the control group−OD value of the blank group)
# The tumor cell lines are cultured in RPMI-1640 medium containing 15% of the newborn bovine serum in a conventional manner, placed in the humidification incubator containing 5% of CO2 for being cultured at 37° C., and are observed for growth by an inverted microscope. A subculture is conducted every about 3-5 days, the cells in logarithmic growth phase are adopted to be digested with 0.25% of trypsin, and the serum-free RPMI-1640 medium is used for culturing the cell suspension; the blood counting plate makes counting, the trypan blue exclusion tests the cell activity, and the cell viability>95% is used for formal tests.
# Liquid preparation: the compounds are labeled with the codes respectively, DMSO is used to dissolve each compound, the bacterial filter is used to remove bacteria, and each compound is prepared into 10^−4 g/ml, 10^−5 g/ml, 10^−6 g/ml and preserved at 4° C. for use.
# MTT method: a bottle of 4-5 days old cells in the exponential growth phase are adopted to be cultured, and added with an appropriate amount of Trypsin-EDTA solution, so as to enable the adherent cells to fall off, and are prepared with 10 ml of RPMI-1640 medium containing 15% newborn bovine serum into suspensions; after stained with trypan blue, the cell number is counted on the blood counting plate to ensure that the live cells is more than 97%; the cell suspensions are diluted by the complete medium so that each […] of solution contains 5000-400000 cells; the 96-well plate is used with 200 μl of cell suspensions added into each. The 96-well plate is placed at 37° C. in 5% of CO2 containing incubator for 24 hours; the test compounds are diluted at 3 dilutions with 5 wells in parallel for each concentration; the serum-free RPMI1640 is used as the control group. […]
SMILES,IC50 (HIV-1 integrase) [µM],"Inhibitory rate % (MCF7; MCF7, 10^−4 g/ml) [%]","Inhibitory rate % (MCF7; MCF7, 10^−5 g/ml) [%]","Inhibitory rate, sensitivity class (MCF7; MCF7, 10^−6 g/ml)","Inhibitory rate, sensitivity class (MCF7; MCF7, 10^−5 g/ml)"
O=C(c1cc(O)c(O)cc1O)c1ccc(O)c(O)c1O,37.8,73.19,35.48,insensitive (<30% means insensitive),–
"O=C(c1ccc(O)c(O)c1O)c1ccc(O)c(O)c1O [2,3,4,2′,3′,4′-hexahydroxybenzophenone]",32.8,76.37,43.52,insensitive (<30% means insensitive),–
"O=C(c1ccccc1)c1ccc(O)c(O)c1O [2,3,4-trihydroxybenzophenone]",52.6,78.59,38.60,insensitive (<30% means insensitive),–
"O=C(c1ccc(O)cc1O)c1ccc(O)cc1O [2,4,2′,4′-tetrahydroxybenzophenone]",45.6,45.73,–,insensitive (<30% means insensitive),insensitive (<30% means insensitive)
